Tested on: β23 (HA-tagged) in SH-SY5Y cells
Assay: β23 clearance by Western blot and immunofluorescence of HA-tagged β23
Type: cell-based, Human
Conditions: 1 μM; for HA-β23 immunofluorescence signal in mCherry-positive transfected cells: 37 h
Protocol: Figure 1 Peucedanocoumarin IV (PCiv) inhibits β23 aggregations and cytotoxicity in SH-SY5Y cells. (A) Scheme showing the detailed experimental steps in the organic synthesis of racemic PCiv and racemic PCiii (rac-PCiii, and rac-PCiv). Both PCiii and PCiv used in this study are racemic forms. (B) Trypan blue exclusion cell viability assessment in SH-SY5Y cells with Tet-Off-induced β23 expressions. β23 was expressed for 24 h using the Tet-off system. Further expression of β23 was halted by doxycycline (Dox) treatment with simultaneous treatment of the PCiii, PCiv, or their synthetic intermediate, trans-khellatone (t-khellatone, 1 μM 24 h). Cell viability was assessed 24 h after doxycycline treatment (n = 5 per group). (C) Synthetic PCiv’s protective effect on Tet-Off-expressed β23 toxicity in SH-SY5Y cells compared with peucedanocoumarin III (PCiii) determined by trypan blue exclusion assay. (D) The degradation of β23 monitored by Western blot at 37 h after doxycycline (200 ng/mL) treatment. The representative Western blot image of HA (β23) in SH-SY5Y cells treated with synthetic PCiii, synthetic PCiv (1 μM, 37 h), or DMSO as a vehicle. (E) Quantification of HA (β23) expression in SH-SY5Y cells from the indicated experimental groups in panel D (n = 3 experiments per group). (F) Representative immunofluorescence of steady state HA (β23) expression in SH-SY5Y cells expressing Tet-Off regulatable reporter mCherry and HA-tagged β23. […] (G) Quantification of HA (β23) immunofluorescence signal in mCherry positive SH-SY5Y cells in each experimental group (n = 32 cells from three separate experiments per group). The data are expressed as means ± SEMs. * p < 0.05, ** p < 0.01, *** p < 0.001, and **** p < 0.0001, ANOVA test followed by Tukey’s post hoc analysis. […]
Lysis buffer was added to the SH-SY5Y cells washed with ice-cold PBS (1% Nonidet P40 in PBS, pH 7.4) that was supplemented with protease/phosphatase inhibitors. […] The supernatants were quantified through BCA protein assessment. […] Next, band quantification was performed using ImageJ software. […]

SMILES | HA-β23 immunofluorescence signal in mCherry-positive transfected cells | steady-state β23 expression levels (Western blot) (37 h after doxycycline)
C/C=C(\C)C(=O)O[C@@H]1c2c(ccc3ccc(=O)oc23)OC(C)(C)[C@H]1OC(C)=O (relative stereo) [PCiii, peucedanocoumarin III] | markedly reduced | –
C/C=C(\C)C(=O)O[C@H]1[C@H](OC(C)=O)c2c(ccc3ccc(=O)oc23)OC1(C)C (relative stereo) [PCiv, trans-4′-acetyl-3′-tigloylkhellactone] | markedly reduced | markedly reduced
